Assay results from patent US9783537B2, “3-(4-ethylnylphenyl) pyridopyrimidinone compounds and process for preparation thereof useful as potential anticancer agents” (Council of Scientific & Industrial Research, priority 2013, dated 2017).
Like-named read-outs stand apart in the source and are kept apart here.

Assays:
[1] = system: HOP-92; assay: SRB 48 h growth assay, Non-small Cell Lung HOP-92; type: cell-based, human; conditions: Homo sapiens, HOP-92, Non-small Cell Lung
[2] = system: NCI/ADR-RES; assay: SRB 48 h growth assay, Ovarian NCI/ADR-RES; type: cell-based, human
[3] = system: OVCAR-8; assay: SRB 48 h growth assay, Ovarian OVCAR-8; type: cell-based, human; conditions: OVCAR-8, Ovarian
[4] = system: UACC-257; assay: SRB 48 h growth assay, Melanoma UACC-257; type: cell-based, human; conditions: UACC-257, Melanoma
[5] = system: U251; assay: SRB 48 h growth assay, CNS U251; type: cell-based, human
[6] = system: seven ovarian cancer cell lines (IGROV1, OVCAR-3, OVCAR-4, OVCAR-5, OVCAR-8, NCI/ADR-RES and SK-OV-3); assay: in vitro anticancer activity, ovarian panel; type: cell-based; conditions: Homo sapiens, exposure at least 48 h, read-out: GI50, range over panel
[7] = system: six breast cancer cell line (MCF-7, MDA-MB-231/ATCC, HS 578T, TD-47D, MDA-MB-468 and BT-549); assay: in vitro anticancer activity, breast panel; type: cell-based; conditions: Homo sapiens; six breast cancer cell lines, exposure at least 48 h; read-out: GI50, range over panel
[8] = system: HOP-62; assay: SRB 48 h growth assay, Non-small Cell Lung HOP-62; type: cell-based, human; conditions: HOP-62, Non-small Cell Lung
[9] = system: CCRF-CEM; assay: SRB 48 h growth assay, Leukemia CCRF-CEM; type: cell-based, human
[10] = system: HCC-2998; assay: SRB 48 h growth assay, Colon HCC-2998; type: cell-based, human; conditions: HCC-2998, Colon
[11] = in vitro anticancer activity, non-small cell lung panel; type: cell-based; conditions: Homo sapiens; nine non-small cell lung cancer cell lines, exposure at least 48 h; read-out: GI50, range over panel
[12] = system: HCT-116; assay: SRB 48 h growth assay, Colon HCT-116; type: cell-based, human; conditions: HCT-116, Colon
[13] = system: NCI-H23; assay: SRB 48 h growth assay, Non-small Cell Lung NCI-H23; type: cell-based, human
[14] = system: SK-MEL-28; assay: SRB 48 h growth assay, Melanoma SK-MEL-28; type: cell-based, human; conditions: SK-MEL-28, Melanoma
[15] = system: 786-0; assay: SRB 48 h growth assay, Renal 786-0; type: cell-based, human; conditions: 786-0, Renal
[16] = system: SK-MEL-2; assay: SRB 48 h growth assay, Melanoma SK-MEL-2; type: cell-based, human; conditions: SK-MEL-2, Melanoma
[17] = system: HS578T; assay: SRB 48 h growth assay, Breast HS578T; type: cell-based, human
[18] = system: RXF393; assay: SRB 48 h growth assay, Renal RXF393; type: cell-based, human
[19] = system: UO-31; assay: SRB 48 h growth assay, Renal UO-31; type: cell-based, human; conditions: UO-31, Renal
[20] = system: OVCAR-3; assay: SRB 48 h growth assay, Ovarian OVCAR-3; type: cell-based, human; conditions: OVCAR-3, Ovarian
[21] = system: SNB-19; assay: SRB 48 h growth assay, CNS SNB-19; type: cell-based, human; conditions: SNB-19, CNS
[22] = system: KM12; assay: SRB 48 h growth assay, Colon KM12; type: cell-based, human
[23] = system: two prostate cancer cell line (PC-3, DU-145); assay: in vitro anticancer activity, prostate panel; type: cell-based; conditions: Homo sapiens; two prostate cancer cell lines, exposure at least 48 h; read-out: GI50, range over panel
[24] = system: OVCAR-4; assay: SRB 48 h growth assay, Ovarian OVCAR-4; type: cell-based, human; conditions: OVCAR-4, Ovarian
[25] = system: T-47D; assay: SRB 48 h growth assay, Breast T-47D; type: cell-based, human
[26] = system: HT-29; assay: SRB 48 h growth assay, Colon HT-29; type: cell-based, human; conditions: HT-29, Colon
[27] = Homo sapiens, read-out: Growth Inhibition GI50
[28] = Homo sapiens, read-out: Log10 GI50 (converted)
[29] = Homo sapiens, read-out: Log10 LC50 (converted)

C#Cc1ccc(-n2c(/C=C/c3ccc(C(F)(F)F)cc3)nc3ncccc3c2=O)cc1 [4c, (E)-3-(4-Ethynylphenyl)-2-(4-(trifluoromethyl)styryl)pyrido[2,3-d]pyrimidin-4(3H)-one]
GI50 ([1]; read-out: Growth Inhibition GI50): 1320 nM
GI50 ([1]; read-out: Log10 GI50 (converted)): 1320 nM
CC50 ([1]; read-out: Log10 LC50 (converted)): 8910 nM
Log10 TGI50 [2]: −5.16
GI50 [2, 27]: 2500 nM
GI50 [2, 28]: 2510 nM
CC50 [2, 29]: > 100000 nM
GI50 [3, 27]: 1870 nM
GI50 [3, 28]: 1860 nM
CC50 [3, 29]: 31600 nM
Log10 TGI50 [3]: −5.33
GI50 [4, 27]: 1560 nM
GI50 [4, 28]: 1550 nM
CC50 [4, 29]: 5620 nM
Log10 TGI50 [4]: −5.53
Log10 TGI50 [5]: −5.50
GI50 ([5]; Homo sapiens, U-251, read-out: Growth Inhibition GI50): 1670 nM
GI50 ([5]; Homo sapiens, U-251, read-out: Log10 GI50 (converted)): 1660 nM
CC50 ([5]; Homo sapiens, U-251, read-out: Log10 LC50 (converted)): 5890 nM
GI50 [6]: 1950 to 7550 nM
GI50 [7]: 960 to 7620 nM
Log10 TGI50 [8]: −5.29
GI50 [8, 27]: 2430 nM
GI50 [8, 28]: 2450 nM
CC50 [8, 29]: > 100000 nM
Log10 TGI50 [9]: >−4.00
CC50 ([9]; Homo sapiens, CCKF-CEM, read-out: Log10 LC50 (converted)): > 100000 nM
GI50 [9, 27]: 1950 nM
GI50 [9, 28]: 1950 nM
Log10 TGI50 [10]: −5.46
GI50 [10, 27]: 1960 nM
GI50 [10, 28]: 1950 nM
CC50 [10, 29]: 6170 nM
GI50 [11]: 1630 to 7450 nM
Log10 TGI50 [12]: −5.52
GI50 [12, 27]: 1640 nM
GI50 [12, 28]: 1620 nM
CC50 [12, 29]: 5620 nM
Log10 TGI50 [13]: −4.72
GI50 [13, 27]: 3900 nM
GI50 [13, 28]: 3890 nM
LC50 [13, 29]: > 100000 nM
GI50 [14, 27]: 1780 nM
GI50 [14, 28]: 1780 nM
CC50 [14, 29]: 6030 nM
Log10 TGI50 [14]: −5.49
Log10 TGI50 [15]: −5.43
GI50 [15, 27]: 2060 nM
GI50 [15, 28]: 2040 nM
CC50 [15, 29]: 6610 nM
GI50 [16, 27]: 2030 nM
GI50 [16, 28]: 2040 nM
CC50 [16, 29]: 8320 nM
Log10 TGI50 [16]: −5.39
Log10 TGI50 [17]: >−4.00
GI50 ([17]; Homo sapiens, Hs-578T, read-out: Growth Inhibition GI50): 3460 nM
GI50 ([17]; Homo sapiens, Hs-578T, read-out: Log10 GI50 (converted)): 3470 nM
CC50 ([17]; Homo sapiens, Hs-578T, read-out: Log10 LC50 (converted)): > 100000 nM
Log10 TGI50 [18]: −5.42
GI50 ([18]; Homo sapiens, RXF 393, read-out: Growth Inhibition GI50): 1790 nM
GI50 ([18]; Homo sapiens, RXF 393, read-out: Log10 GI50 (converted)): 1780 nM
CC50 ([18]; Homo sapiens, RXF 393, read-out: Log10 LC50 (converted)): 7940 nM
GI50 [19, 27]: 1430 nM
GI50 [19, 28]: 1450 nM
CC50 [19, 29]: 9330 nM
Log10 TGI50 [19]: −5.44
GI50 [20, 27]: 1670 nM
GI50 [20, 28]: 1660 nM
CC50 [20, 29]: 6030 nM
Log10 TGI50 [20]: −5.50
GI50 [21, 27]: 1910 nM
GI50 [21, 28]: 1910 nM
CC50 [21, 29]: 9550 nM
Log10 TGI50 [21]: −5.37
Log10 TGI50 [22]: −5.46
GI50 [22, 27]: 1790 nM
GI50 [22, 28]: 1780 nM
CC50 [22, 29]: 6610 nM
GI50 [23]: 2350 to 7450 nM
GI50 [24, 27]: 1580 nM
GI50 [24, 28]: 479 nM
CC50 [24, 29]: 6920 nM
Log10 TGI50 [24]: −5.48
Log10 TGI50 [25]: −5.30
GI50 ([25]; Homo sapiens, T47D, read-out: Growth Inhibition GI50): 2020 nM
GI50 ([25]; Homo sapiens, T47D, read-out: Log10 GI50 (converted)): 2000 nM
CC50 ([25]; Homo sapiens, T47D, read-out: Log10 LC50 (converted)): 28200 nM
Log10 TGI50 [26]: −5.40
GI50 [26, 27]: 2030 nM
GI50 [26, 28]: 2040 nM
CC50 [26, 29]: 7760 nM
